From US20250214969A1, “PROTEIN DEGRADERS AND USES THEREOF” (Kymera Therapeutics, Inc., priority 2022, published 2025)

Columns and labels:
[1] = molecular target: T1, truncated His-MBP-Tev-KLHDC2 (residues 1-363) (Homo sapiens, UniProt Q9Y2U9); experiment: KLHDC2 HTRF binding assay; conditions: 1 nM KLHDC2 (residues 1-363), fluorescein-labeled diglycine peptide probe
T1 construct: truncated His -MBP-Tev-KLHDC2 (residues 1-363) purified from E. coli; made in house; host or cells: E. coli
T1 sequence (Q9Y2U9 1-363): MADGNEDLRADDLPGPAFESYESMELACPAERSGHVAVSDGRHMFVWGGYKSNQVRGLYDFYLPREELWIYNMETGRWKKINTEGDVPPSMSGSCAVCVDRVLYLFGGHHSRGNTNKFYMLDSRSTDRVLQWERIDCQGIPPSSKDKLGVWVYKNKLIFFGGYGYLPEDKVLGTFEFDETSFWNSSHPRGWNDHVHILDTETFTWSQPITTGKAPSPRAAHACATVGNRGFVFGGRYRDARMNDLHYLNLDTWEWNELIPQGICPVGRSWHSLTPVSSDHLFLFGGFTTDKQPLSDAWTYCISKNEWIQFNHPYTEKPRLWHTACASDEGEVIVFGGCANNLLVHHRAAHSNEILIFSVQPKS

[2] = molecular target: T1, truncated His-MBP-Tev-KLHDC2 (residues 1-363); experiment: KLHDC2 FP competition binding assay; conditions: 15 nM KLHDC2 (residues 1-363), 10 nM fluorescein-labeled diglycine peptide probe, read-out: KLHDC2 binding Human FP: average external IC50

Row | Structure (SMILES) | IC50 [1] [µM] | IC50 [2] [µM]
1 | Cc1cccc(-c2ccc(O)c(CC(=O)O)c2)c1 [I-337] | > 5 | > 5
2 | O=C(O)Cn1cc(N2Cc3ccc(-c4cccnc4)cc3C2=O)ccc1=O [I-81] | > 5 | > 5
3 | O=C(O)Cc1cccc(NC(=O)CCc2cccc(OC3CCCC3)c2)c1 [I-351] | > 5 | > 5
4 | Cc1sc2c(c1C)C(c1ccc(Cl)cc1)=N[C@@H](CC(=O)NCCCCCCc1ccc(C(=O)Nc3ccc(=O)n(CC(=O)O)c3)cc1-c1cccnc1)c1nnc(C)n1-2 [I-473] | 0.05 to 0.5 | < 0.05
5 | O=C(O)CC1CN(C(=O)c2cccc(-c3cccnc3)c2)CCO1 (stereo not drawn) [I-90] | > 5 | > 5
6 | O=C(O)Cn1cc(N2CC[C@@]3(CCCN(c4cccnc4)C3)C2=O)ccc1=O [I-14] | > 5 | > 5
7 | COc1cc(-c2ccc(F)c(CCCCCCCCCNC(=O)C[C@@H]3N=C(c4ccc(Cl)cc4)c4c(sc(C)c4C)-n4c(C)nnc43)c2)ccc1C(=O)Nc1ccc(=O)n(CC(=O)O)c1 [I-469] | 0.5 to 5 | 0.05 to 0.5
8 | Cn1cc(NC(=O)c2cccc(-c3cccnc3)c2)cc(C(=O)O)c1=O [I-31] | > 5 | > 5
9 | O=C(O)Cc1cc(NC(=O)c2cccc(-c3cccnc3)c2)ccc1Cl [I-60] | 0.5 to 5 | > 5
10 | CC(C)c1cc(=O)n(CC(=O)O)cc1NC(=O)[C@H]1CCCN(c2cccnc2)C1 [I-46] | 0.5 to 5 | > 5
11 | O=C(O)Cn1cc(-c2cc(F)cc(F)c2)ccc1=O [I-371] | > 5 | > 5
12 | O=C(O)Cn1cc(N2CCc3ccccc3C2=O)ccc1=O [I-95] | 0.5 to 5 | > 5
13 | CC(C)c1cc(=O)n(CC(=O)O)cc1NC(=O)c1cccc(-c2cccnc2)c1 [I-59] | 0.05 to 0.5 | 0.5 to 5
14 | Cc1ccc(C)c(-c2ccc(=O)n(CC(=O)O)c2)c1 [I-419] | > 5 | > 5
15 | COc1cccc2c(N3CCC[C@H](C(=O)Nc4ccc(Cl)c(CC(=O)O)c4)C3)cncc12 [I-5] | 0.05 to 0.5 | 0.05 to 0.5
16 | O=C(O)Cn1cc(NC(=O)[C@H]2CCCN(c3cccnc3)C2)c(C2CC2)cc1=O [I-57] | > 5 | > 5
17 | O=C(O)Cn1cc(CC(=O)N2CCCCC2)ccc1=O [I-290] | > 5 | > 5

Continued, values first:

Row | IC50 [1] [µM] | IC50 [2] [µM] | Structure (SMILES)
18 | > 5 | > 5 | O=C(O)CCn1cc(NC(=O)c2cccc(-c3cccnc3)c2)ccc1=O [I-94]
19 | > 5 | > 5 | NCCCCCCn1ccc2c(C(=O)Nc3ccc(=O)n(CC(=O)O)c3)cccc21 [I-137]
20 | > 5 | > 5 | O=C(O)Cn1cc(NC(=O)COc2cccc3ncccc23)ccc1=O [I-263]
21 | > 5 | > 5 | O=C(O)Cn1cc(CC(=O)N2CCc3ccccc32)ccc1=O [I-277]
22 | > 5 | > 5 | O=C(O)Cn1cc(NC(=O)c2cccc(-c3ccccn3)c2)ccc1=O [I-209]
23 | > 5 | > 5 | CN(C)C(=O)c1ccc(-c2ccc(=O)n(CC(=O)O)c2)cc1F [I-384]
24 | > 5 | > 5 | O=C(O)Cn1cc(NC(=O)COc2ccc(Cl)cc2)ccc1=O [I-278]
25 | 0.5 to 5 | > 5 | Cc1c(Cl)cccc1OCC(=O)Nc1ccc(=O)n(CC(=O)O)c1 [I-309]
26 | 0.5 to 5 | > 5 | O=C(O)Cn1cc(NC(=O)c2cccc3[nH]ccc23)ccc1=O [I-139]
27 | > 5 | > 5 | Cn1ccc2cccc(-c3ccc(=O)n(CC(=O)O)c3)c21 [I-363]
28 | 0.5 to 5 | > 5 | C[C@H](C(=O)O)n1cc(NC(=O)c2cccc(-c3cccnc3)c2)ccc1=O [I-72]
29 | > 5 | > 5 | O=C(O)Cn1cc(/C=C/c2ccccc2)ccc1=O [I-326]
30 | > 5 | > 5 | O=C(O)Cn1cc(NC(=O)CCNC(=O)c2ccc3ccccc3c2)ccc1=O [I-190]
31 | > 5 | > 5 | O=C(O)Cn1cc(NC(=O)c2cccc(-c3cccc(F)c3)c2)ccc1=O [I-298]
32 | > 5 | > 5 | O=C(O)Cn1cc(NC(=O)[C@H]2Cc3ccccc3N(c3cccnc3)C2)ccc1=O [I-12]
33 | > 5 | > 5 | Cc1onc(-c2ccc(F)cc2)c1C(=O)Nc1ccc(=O)n(CC(=O)O)c1 [I-254]
34 | > 5 | > 5 | CCCOc1nc2ccccc2cc1C(=O)Nc1ccc(=O)n(CC(=O)O)c1 [I-188]
35 | 0.05 to 0.5 | > 5 | CC(C)Cn1ccc2c(C(=O)Nc3ccc(=O)n(CC(=O)O)c3)cccc21 [I-238]
36 | > 5 | > 5 | O=C(O)Cn1cc(NC(=O)[C@@H]2CCN(c3cccnc3)C2)ccc1=O [I-49]
